Experimental data taken from patent publication US12611405B2, “Agent that increases the expression of the BCL2-associated agonist of cell death for the treatment of cancer” (LDN Pharma Limited, priority 2017, dated 2026).

Key:
Type in all cases: cell-based
[1] = test system: BAD expression in HCT116 colon cancer cells; experiment: Level of expression of BAD after 48 h culture, immunoblotting
Description: In order to determine the effect of 6-β-naltrexol or naltrexone on the level of expression of BAD, pAKT, p21, cyclin B1 and CDK1 HCT116 colon cancer cells were seeded onto 6-well plates at a density of 2×10^5 cell/well, and allowed to adhere overnight. Cells were then cultured in the presence of naltrexone or 6-β-naltrexol at concentrations of 10 nM or 10 μM for a further 48 h. Cells were then harvested and processed for measurements of BAD, or pAKT, p21, cyclin B1 and CDK1 using standard immunoblotting techniques.

[2] = test system: A549 cells; experiment: Two-phase priming with 6-β-naltrexol then GEM or OXP, cell number and viability by trypan blue counting
Description: (§1) The impact of combining 6-β-naltrexol with other chemotherapy agents was tested by culturing cells according to a treatment schedule that involved two phases of treatment. The first phase involved priming with 10 nM 6-β-naltrexol or 10 μM 6-β-naltrexol for 48 h, before treatment with another drug for a further 48 h. A549 and HCT116 cells were seeded into 6-well plates at a density of 2×10^5 cells/well and left to adhere overnight. Media was removed after 48 h, and cells were rinsed gently with drug-free medium. Fresh culture medium that contained gemcitabine (GEM) or oxaliplatin (OXP) was then added to the cells. The concentrations of the chemotherapy agents used were approximately ¼ IC50, as established previously [Liu W M, Fowler D W, Smith P, Dalgleish A G. Pre-treatment with chemotherapy can enhance the antigenicity and immunogenicity of tumours by promoting adaptive immune responses. Br J Cancer. 2010 Jan. 5; 102(1):115-23. doi: 10.1038/sj.bjc.6605465.]. Cells were then left for a further 48 h before assessment of cell number of viability by cell counting using trypan blue dye as a way of discriminating live and dead cells. Cytostasis was indicated by a reduction in cell number and no associated reduction in cell viability.

[3] = test system: HCT116 cells; experiment: as above
Description: as §1

[4] = test system: BAD expression in breast cancer cell line MCF-7; experiment: BAD protein expression by western blotting; conditions: MCF-7, different concentrations of 6BN (FIG. 3)
[5] = test system: MCF-7 cells; experiment: 6BN given concomitantly with gemcitabine or oxaliplatin, cell number and viability by trypan blue dye exclusion; conditions: 10 uM 6BN concomitantly with gemcitabine (0.5 uM) or oxaliplatin (0.5 uM), 48 h
Description: The effect of combining 6BN with the chemotherapeutic agents gemcitabine or oxaliplatin was tested by culturing MCF-7 cells with 6BN (10 nM or 10 uM) concomitantly with gemcitabine (0.5 uM) or oxaliplatin (0.5 uM). Cell number and viability was then assessed after 48 h using trypan blue dye exclusion as a means to discriminate live/dead cells.

[6] = 6-β-naltrexol priming 48 h in an amount raising BAD by at least 10%, then GEM or OXP at approx. ¼ IC50 for 48 h

| SMILES | effect on the level of expression of BAD ([1]; 10 nM) | increase in the level of expression of BAD ([1]; 10 μM) | cytotoxicity of 6-β-naltrexol alone ([2]; 10 nM or 10 μM 6BN, no chemotherapeutic agent (FIG. 2c)) | cytotoxic effect of both chemotherapeutic agents (GEM, OXP) after priming [2, 6] | cytotoxicity of 6-β-naltrexol alone ([3]; 10 nM or 10 μM 6BN, no chemotherapeutic agent (FIG. 2d)) | cytotoxic effect of both chemotherapeutic agents (GEM, OXP) after priming [3, 6] | expression of the pro-apoptotic protein BAD [4] | effect on cell viability of the combination with chemotherapy [5] | effect on the level of expression of BAD ([1]; 10 μM) |
| --- | --- | --- | --- | --- | --- | --- | --- | --- | --- |
| Oc1ccc2c3c1OC1[C@H](O)CC[C@@]4(O)[C@@H](C2)N(CC2CC2)CC[C@]314 (stereo partly drawn) [6-β-naltrexol, 17-(Cyclopropylmethyl)-4,5-epoxymorphinan-3,6 beta,14-triol] | negligible effect | more than 10% | absence of any independent increase in cytotoxicity | increased | absence of any independent increase in cytotoxicity | increased | dose dependent increase | greatest effect on cell viability |  |
| O=C1CC[C@@]2(O)[C@H]3Cc4ccc(O)c5c4[C@@]2(CCN3CC2CC2)[C@H]1O5 [naltrexone, reference compound] | negligible effect |  |  |  |  |  |  |  | negligible effect |
